According to patent US20200148682A1, “AKT ISOZYME-SPECIFIC COVALENT INHIBITORS DERIVED FROM REDOX-SIGNALING LIPIDS” (Cornell University, priority 2017, published 2020):

Columns and labels:
Assay type in all cases: cell-based
T47D MK-2206-res = test: Cell viability assay (AlamarBlue), MK-2206-resistant line; conditions: 3 days
Description: After this time, cells were lysed and analyzed by antibodies for phosphorylated T305 (pT305) of Akt3, Halo (Akt), and Actin (loading control). […] FIG. 23F is a graph showing proliferation curves. […] After this time, the number of viable cells was calculated using AlamarBlue®. Proliferation curves were fitted to the PI50 equation (EQN. 4). […] FIG. 23H is a graph showing the percentage of viable cells. […] The percentage of growth relative to DMSO-treated cells is shown for the 48 hour point and the 72 hour point. FIG. 23I is a schematic showing the different methods used to derive the data in 23H.
Indicated cells were plated in a 96-well plate containing the DMEM complete medium (see Example 11 for complete medium formulation, 100 μL per well) with a density of 3,000-5,000 cells per well for 12 hours followed by the addition of varying concentrations of inhibitors in rinse medium (100 μL). The cells were allowed to grow for 72 hours and 100 μL of the culture medium was removed from each well. This was followed by the addition of 10 μL AlamarBlue® reagent to each well. The fluorescence emission signals at 590 nm were read by Cytation 3 cell imaging multi-mode reader (BioTeK) using an excitation wavelength of 560 nm. Curve fitting and data analysis were performed using Prism software.

endogenous Akt = test: Biotin-azide pulldown of endogenous Akt kinases from native HEK293T cells; conditions: 5 μM, 12 hours
Description: A fraction of each sample was used for the input blot. The remaining cell lysates were labeled with biotin-azide using standard click chemistry followed by streptavidin enrichment.
HEK293T cells were split in 100 cm^2 plates. […] Cells were harvested, washed twice with chilled 1×DPBS and flash frozen. Cell lysis was performed in 200 μL lysis buffer following general procedure described in Example 13, Each lysate was subsequently diluted to 2 mg/mL with lysis buffer and a small fraction of each lysate sample was kept for input gel. The remaining lysates were subjected to click reaction with biotin-azide for 30 min at 37° C. The final concentrations of each component was: 2 mM TCEP, 5% t-BuOH, 1% SDS, 1 mM CuSO4, 0.1 mM Cu(TBTA), 10 μM biotin-azide and 1.2 mg/mL lysate protein. The lysate proteins were precipitated by adding four volumes of ethanol pre-chilled at −20° C. The sample was vortexed and incubated at −80° C. overnight (or at least 4 hours). The precipitant was collected by centrifugation at 20,000×g for 30 min at 4° C. and washed twice with pre-chilled methanol then acetone. The pellet was resuspended in 25 μL 50 mM HEPES (pH 7.6), 8% LDS and 0.5 μM EDTA and dissolved by vortexing and heating at 42° C. for 5 min. […]

Akt2 (pT309) = target: T1, Akt2 (pT309) (Homo sapiens, UniProt P31751); test: Western blot and ratiometric ELISA of Akt phosphorylation in HEK293T cells; conditions: 5 μM, 48 hours
T1 construct: expressed in transfected cells; host or cells: HEK293T
T1 sequence (P31751 whole entry): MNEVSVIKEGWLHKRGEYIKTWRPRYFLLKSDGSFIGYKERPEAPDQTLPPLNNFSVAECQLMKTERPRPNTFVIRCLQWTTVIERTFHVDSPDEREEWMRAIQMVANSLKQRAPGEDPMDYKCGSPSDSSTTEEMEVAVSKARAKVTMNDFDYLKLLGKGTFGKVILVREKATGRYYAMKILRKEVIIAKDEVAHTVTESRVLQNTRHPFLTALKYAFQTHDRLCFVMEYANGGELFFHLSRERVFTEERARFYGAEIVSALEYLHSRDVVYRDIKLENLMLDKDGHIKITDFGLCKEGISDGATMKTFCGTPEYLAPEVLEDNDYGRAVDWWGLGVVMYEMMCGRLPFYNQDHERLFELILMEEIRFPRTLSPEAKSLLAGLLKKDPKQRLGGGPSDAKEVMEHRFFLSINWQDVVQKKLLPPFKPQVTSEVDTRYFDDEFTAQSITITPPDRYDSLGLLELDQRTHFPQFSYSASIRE

Akt1 = target: T2, Akt1 (Homo sapiens, UniProt P31749); test: In-gel fluorescence assay (Cy5-azide click) of covalent labeling in transfected HEK293T cells; conditions: 5 μM, 48 hours
T2 construct: expressed in transfected cells; host or cells: HEK293T
T2 sequence (P31749 whole entry): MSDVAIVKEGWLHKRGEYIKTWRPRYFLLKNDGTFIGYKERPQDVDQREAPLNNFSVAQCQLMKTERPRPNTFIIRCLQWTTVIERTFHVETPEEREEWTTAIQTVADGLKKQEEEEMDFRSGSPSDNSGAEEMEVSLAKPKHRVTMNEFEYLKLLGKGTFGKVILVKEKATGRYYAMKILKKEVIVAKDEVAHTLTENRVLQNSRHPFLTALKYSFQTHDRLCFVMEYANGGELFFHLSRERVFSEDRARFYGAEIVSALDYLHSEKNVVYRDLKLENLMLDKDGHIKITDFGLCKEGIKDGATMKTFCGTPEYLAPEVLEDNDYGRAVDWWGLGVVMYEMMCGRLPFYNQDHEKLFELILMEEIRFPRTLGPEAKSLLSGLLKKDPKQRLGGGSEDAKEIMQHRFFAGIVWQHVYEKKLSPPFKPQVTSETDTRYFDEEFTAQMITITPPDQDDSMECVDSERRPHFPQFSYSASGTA
Excerpt: (§1) Overexpressed Akt proteins were labeled with Cy5-small-molecule-fluorophore-conjugated azide (Cy5-azide) using standard click chemistry. FIG. 16A top gel is an image showing Cy5 channel (used to evaluate the extent of covalent binding on each Akt protein). The lysate from non-transfected HEK 293T cells was also used for comparison. M, molecular weight ladder. […] FIG. 16B top gel is an image showing Cy5 channel. M is a molecular weight ladder. FIG. 16B bottom is an image showing western blots probing Halo and actin, respectively. […] Error bars designate s.d. […] Normalized fluorescent signal (NFS) was calculated from the following equation: NFS=[(Cy5(X μM drug)−Cy5(No transfection))/Halo(X μM drug)]÷[(Cy5(no drug)−Cy5(No transfection))/Halo(no drug)]. The relative fluorescent signal (RFS) is calculated from the following equation: RFS=(Cy5(X μM drug)/Halo(X μM drug)) (Cy5(no drug)/Halo(no drug))
(§2) Cell transfection with the designated plasmid encoding a given HaloTag-Akt fusion gene was carried out following the general procedure described in Example 12. After 20-24 hours, the transfection media were aspirated and replaced with fresh 2 mL rinse MEM medium supplemented with 3% FBS containing the indicated concentration of inhibitor or the equivalent final volume of DMSO and the plates were incubated for the indicated period of time. […]

Akt3 C119S mutant = target: T3, Akt3 C119S mutant (Homo sapiens, UniProt Q9Y243, C119S); test: as above; conditions: 5 μM, 48 hours
T3 construct: expressed in transfected cells; host or cells: HEK293T
T3 sequence (Q9Y243 whole entry C119S): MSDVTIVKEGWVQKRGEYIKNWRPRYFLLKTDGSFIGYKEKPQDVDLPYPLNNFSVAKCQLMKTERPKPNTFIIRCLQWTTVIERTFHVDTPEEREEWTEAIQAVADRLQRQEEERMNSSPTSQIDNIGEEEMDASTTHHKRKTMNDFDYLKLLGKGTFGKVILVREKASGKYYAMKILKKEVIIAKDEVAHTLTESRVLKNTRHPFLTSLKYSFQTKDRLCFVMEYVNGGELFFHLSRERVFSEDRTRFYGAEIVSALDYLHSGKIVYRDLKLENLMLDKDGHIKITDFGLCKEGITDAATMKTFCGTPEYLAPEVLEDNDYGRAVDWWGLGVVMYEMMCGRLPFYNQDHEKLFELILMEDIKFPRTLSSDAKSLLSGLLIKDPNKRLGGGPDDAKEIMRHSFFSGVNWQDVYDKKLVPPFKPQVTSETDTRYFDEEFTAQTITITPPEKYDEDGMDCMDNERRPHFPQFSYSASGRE
Excerpt: as §1, §2

| Structure (SMILES) | resistance of T47D MK-2206-res line (T47D MK-2206-res) | labeling of endogenous Akt (streptavidin enrichment, anti-pan-Akt blot) (endogenous Akt) | phosphorylation level of Akt2 (Akt2 (pT309)) | covalent inhibition of Akt1 isoform (Akt1) | covalent modification of C119S mutant of Akt3 (Akt3 C119S mutant) |
| --- | --- | --- | --- | --- | --- |
| C#CCCCC(F)/C=C/C(=O)NC1(c2ccc(-c3nc4ccn5c(=O)[nH]nc5c4cc3-c3ccccc3)cc2)CCC1.Cl (centres unmarked) [MK-FNE, (E)-8-(4-(1-(4-Fluoronon-2-en-8-ynamido)cyclobutyl)phenyl)-3-oxo-9-phenyl-2,3-dihydro-[1,2,4]triazolo[3,4-f][1,6]naphthyridin-7-ium Chloride] | significantly less resistant | – | – | – | – |
| C#CCCCC(O)/C=C/C(=O)NC1(c2ccc(-c3nc4ccn5c(=O)[nH]nc5c4cc3-c3ccccc3)cc2)CCC1.Cl (centres unmarked) [MK-HNE, (E)-8-(4-(1-(4-Hydroxynon-2-en-8-ynamido)cyclobutyl)phenyl)-3-oxo-9-phenyl-2,3-dihydro-[1,2,4]triazolo[3,4-f][1,6]naphthyridin-7-ium Chloride] | – | enrichment of endogenous Akt protein(s) | did not affect phosphorylation levels | no covalent inhibition | no covalent modification |
